# Assays:
# [1] = test system: Experimental Allergic Encephalomyelitis (EAE) of female DA (Dark Agouti) rats; test: Rat spinal cord homogenate induced EAE in DA rats, daily neurological score; assay type: in vivo; conditions: doses of 1, 3 and 10 mg/kg p.o., twice daily for 28 days from one day post-immunization
# Procedure: EAE was induced in female DA (Dark Agouti) rats (8 wks old, from Harlan) by immunization with the 25% w/v rat spinal cord homogenate (r-SCH) in saline emulsified with an equal volume of CFA supplemented with 40 mg/10 ml heated-killed mycobacterium tuberculosis H37Ra (BD Bioscience). Rats were injected s.c. with 0.2 ml of emulsion in the base of tail.
# Rats were scored daily before treatment starting from day 5 post-immunization through the entire experiment by a well-known behavioral scale system: Score 0, normal; 0.5, partial limp tail; 1, complete limp tail; 2, abnormal gait; 3, partial hind limb paralysis, and mice unable to walk normally; 3.5, one leg is completely paralyzed, and one leg is partially paralyzed; 4, complete hind limb paralysis; 4.5, Legs are completely paralyzed and Moribund; 5, death due to EAE. Compound A and Compound B (active metabolite of Compound A), two representatives of thiazolobenzoheterocyclic compounds, were examined in DA rat EAE procedure.
# Compound A and Compound B were given one-day post-immunization, p.o. route, twice daily for 28 days.
# [2] = test system: Experimental Allergic Encephalomyelitis (EAE) of female SJL mice; test: PLP 139-151 induced EAE in SJL/J mice, daily neurological score; assay type: in vivo, mouse
# Source text: The utility of the thiazobenzohetercyclic compounds of formula I for the treatment of various conditions associated with multiple sclerosis can be assessed by measuring their ability to inhibit effects of experimental allergic encephalomyelitis (EAE) in laboratory animals.
# Experimental Autoimmune Encephalomyelitis (EAE) is a T-cell-mediated autoimmune disease of the nervous system that develops in susceptible animals following sensitization with either whole spinal cord homogenate or a myelin component. It is known that EAE reflects or mimics many of the pathophysiological steps in MS, including the role of certain adhesion molecules, the influence of T cells and antibodies reactive to components of the myelin sheath, the participation of metalloproteases in penetrating the blood-brain barrier, and the cytotoxic role of certain cytokines. One of the marketed MS therapies, glatiramer acetate (Copaxone®) was developed preclinically based on its success in treating various models of EAE.
# EAE was induced in female SJL/J mice (8 wks old, from Jackson Laboratories) by immunization with the myelin Proteolipid Protein (PLP 139-151) from BACHEM, Bioscience. PLP139-151 was dissolved in H2O:PBS (1:1) solution to a concentration of 7.5 mg/10 ml (for 75 ug PLP per mouse) and emulsified with an equal volume of CFA supplemented with 40 mg/10 ml heated-killed mycobacterium tuberculosis H37Ra (BD Bioscience). Mice were injected s.c. with 0.2 ml of peptide emulsion in the abdominal flank (0.1 ml on each side). On the same day and 72 hr later, mice were injected i.v. with 35 ng and 50 ng of Bordetella Pertussis toxin (List Biological Laboratories ) in saline, respectively.
# Compound A, one representative of thiazolobenzoheterocyclic compounds, was examined in the PLP/SJL mouse EAE model.
# Study 1: There were five groups, i.e., vehicle (water), Compound A at doses of 5, 10 and 20 mg/kg and dexamethasone (DEX) at a dose of 3 mg/kg. Treatment was begun on day 7 after PLP immunization. Mice were dosed twice per day for 22 days. Results are as follows:
# Study 2: There were five groups, i.e., vehicle (water), Compound A at doses of 10, 20 and 30/40 mg/kg and dexamethasone (DEX) at a dose of 3 mg/kg. Treatment was begun on day 7 after PLP immunization. Mice were dosed twice per day for 18 days.
# [3] = Study 2, SJL EAE mice, twice per day for 18 days from day 7
smiles,measurement,setting,value
"N=c1sc2cc(C(F)(F)F)cc3c2n1CC[S+]([O-])C3 (racemic) [Compound A, (R,S)-2-imino-9-trifluoromethyl-4,5-dihydro-2H,7H-thiazolo[3,4,5-de][4,1]benzothiazepine-6-oxide]",EAE incidence,[1],significantly reduced
same,cumulative neurological scores,[1],significantly reduced
same,maximal neurological scores,[1],significantly reduced
same,neurological deficits in the EAE mice (FIG. 1),"[2]; Study 1, doses of 10 and 20 mg/kg p.o., twice per day for 22 days from day 7 after PLP immunization, vs vehicle",significantly reduced
same,EAE incidence,[2]; [3],reduced
same,disease onset,[2]; [3],delayed
same,neurological scores in SJL EAE mice,"[2]; Study 2, doses of 10 and 20 mg/kg, twice per day for 18 days from day 7 after PLP immunization",significant reduced
"N=c1sc2cc(C(F)(F)F)cc3c2n1CCS(=O)(=O)C3 [Compound B, (R,S)-2-imino-9-trifluoromethyl-4,5-dihydro-2H,7H-thiazolo[3,4,5-de][4,1]benzothiazepine-6,6-dioxide]",EAE incidence,[1],significantly reduced
same,cumulative neurological scores,[1],significantly reduced
same,maximal neurological scores,[1],significantly reduced

# From patent publication US7041661B2, “Use of thiazolobenzoheterocycles for treating multiple sclerosis” (Aventis Pharmaceuticals Inc., priority 2002, dated 2006)
